According to the NIST ThermoML archive (doi:10.1021/acs.jced.5b00075):
± gives the expanded uncertainty stated by the source.

Columns and labels:
[1] = Molar enthalpy of transition or fusion; conditions: Crystal; DSC
[2] = Crystal; DTA
[3] = molar heat capacity at constant pressure; conditions: 101.33 kPa, Small sample (50 mg) DSC

C(=C\c1ccccc1)/CN1CCN(C(c2ccccc2)c2ccccc2)CC1 [cinnarizine]
Conditions	Molar enthalpy of transition or fusion [kcal/mol]	Normal melting temperature [°C]
[1]	8.87 ± 1.03	–
[2]	–	120.83 ± 0.5

[3]
Conditions	molar heat capacity at constant pressure [J/K/mol]
305 K, Crystal	307.19 ± 37
310 K, Crystal	314.6 ± 37
315 K, Crystal	322.02 ± 37
320 K, Crystal	329.43 ± 37
325 K, Crystal	336.84 ± 38
330 K, Crystal	344.26 ± 38
335 K, Crystal	351.67 ± 38
340 K, Crystal	359.09 ± 38
345 K, Crystal	366.5 ± 38
350 K, Crystal	373.91 ± 38
355 K, Crystal	381.33 ± 38
360 K, Crystal	388.74 ± 38
365 K, Crystal	396.15 ± 38
370 K, Crystal	403.57 ± 38
375 K, Crystal	410.98 ± 38
380 K, Crystal	418.4 ± 38
385 K, Crystal	425.81 ± 38
400 K, Liquid	558.85 ± 35
405 K, Liquid	563.97 ± 36
410 K, Liquid	569.09 ± 36
415 K, Liquid	574.21 ± 36
